Laboratory results: patent US9623031B2, “Compositions, methods and kits for treating cancer” (priority 2011, dated 2017)
Entries after “also recorded” stand apart in the source; their conditions may differ.

Key:
[1] = test system: FV-LSCs (M34^+Kit^+Sca1^+); assay: Apoptosis of FV-LSCs treated ex vivo (annexin V, flow cytometry); type: cell-based, mouse; conditions: 25 nM, 36 h, annexin V
Experimental: On day 14 after infection, spleens were isolated and a single cell suspension of spleen cells was generated. The cells were filtered through a 70 μm sterile filter and flow-through cells were resuspended in RBC lysis buffer followed by centrifugation. Leukemia stem cells were isolated by FACS. Spleen cells were labeled with anti-Kit, Sca1 (BioLegend, San Diego, Calif.) and M34 antibodies. […] As indicated M34^+Kit^+Sca1^+ cells were cultured in Methocult media (Stem Cell Technologies Vancouver BC) M3334 supplemented with 200 ng/ml Sonic Hedgehog (Shh), 15 ng/ml bone morphogenetic protein-4 (BMP4) (both from R&D Systems Minneapolis, Minn.), and 50 ng/ml stem cell factor (SCF; Peprotech).
The cells were stained with annexin V-FITC and analyzed by flow cytometry. […] Means±s.e.m. *P<0.001 compared to vehicle (PBS). […] Inset: Effect of rosiglitazone on the apoptosis of LSC. Rosiglitazone (0.1-2.0 μM) was incubated with LSC in the culture media for 36 h as described earlier and the cells were subjected to annexin-V staining followed by flow cytometry. […] LSC were treated ex vivo with indicated concentrations of each compound for 36 h. Mean±s.e.m. shown *P<0.001.

[2] = test system: FV-LSCs transplanted into BALB/c-Stk^−/− mice
Experimental: Transplant of FV-LSCs into BALB/c-Stk^−/− mice: FV-LSCs were generated as described above. 2.5×10^5 FV-LSCs were transplanted into BALB/c-Stk^−/− mice by retro-orbital injection. Six weeks after transplant the mice were treated with CyPGs or vehicle control as indicated in the text.
Treatment of Mice with PGs: Mice with FV-induced erythroleukemia or MIGR-BCR-ABL induced CML were treated on the indicated days with CyPGs. Mice were treated with a daily intraperitoneal injection of Δ^12-PGJ3 (0.01-0.1 mg/kg), 15d-PGJ2 (0.1 mg/kg), or 9,10-dihydro-15d-PGJ2 (0.1 mg/kg) for 7 days. All three compounds were formulated with hydroxypropyl-β-cyclodextrin (30% w/v; Sigma; vehicle control).
Stk^−/− mice are resistant to Friend virus infection so the leukemia developed by the transplanted mice is result of the transplanted LSCs and not FV infection. […] LSCs sorted from the spleens of FV-infected mice were transplanted into Stk^−/− mice (on a Balb/c background). After 6 weeks such mice were treated daily for 1 week with vehicle (hydroxypropyl-β-cyclodextrin), 15d-PGJ2 (0.05 mg/kg), or 9,10-dihydro-15d-PGJ2 (0.05 mg/kg) by intraperitoneal injection. The mice were sacrificed 51 days post LSC transplantation for analysis. An analysis of spleens of mice comparing splenomegaly in vehicle, 15d-PGJ2, or 9,10-dihydro-15d-PGJ2 treated transplanted mice was performed. Spleen weight compared to control (untransplanted mice) after treatment and WBC counts in the peripheral blood of the mice after treatment were examined, and a flow cytometric analysis of the spleen of untransplanted and LSC transplanted mice after treatment was performed. All data were mean±s.e.m. *p<0.05 compared to control or 9,10-dihydro-15d-PGJ2 treated groups. N=5 per group.

p53 [3] = assay: p53 expression in FV-LSCs treated ex vivo (RT-PCR, nuclear extracts); type: cell-based, mouse
p53 [4] = assay: p53 expression in BCR-ABL+ LSCs treated ex vivo; type: cell-based, mouse
[5] = test system: BCR-ABL^+LSC (Kit^+Sca1^+Lin^−GFP^+); assay: Apoptosis of BCR-ABL+ LSCs treated ex vivo (annexin V, flow cytometry); type: cell-based, mouse
Experimental: Apoptosis. Apoptosis of LSCs was performed using annexin V as described below in Supplementary Information and Methods.
Apoptosis. The LSCs were diluted in DMEM, resuspended using a 16-gauge needle, and collected by centrifugation. 1×10^5 cells were resuspended in 200 μl of binding buffer (0.1 M HEPES with 1.4 M NaCl, 25 mM CaCl2, pH 7.4). Annexin V FITC (BD Biosciences) was incubated with cells for 15 min on ice followed by flow cytometric analysis.
The ability of CyPGs derived from arachidonic acid (2 series PGs) to induce apoptosis was tested in cultures of LSCs from FV infected mice and in the murine CML model. […] 15d-PGJ2 is known as a PPAPγ agonist. […] In FIG. 7C Δ^12-PGJ3, 15d-PGJ2 or 9,10-dihydro-15d-PGJ2 are tested for their ability to induce apoptosis in a murine CML model. […] The cells were stained with annexin V-FITC and analyzed by flow cytometry. Representative of N=4. […] Inset: Effect of rosiglitazone on the apoptosis of LSC. Rosiglitazone (0.1-2.0 μM) was incubated with LSC in the culture media for 36 h as described earlier and the cells were subjected to annexin-V staining followed by flow cytometry. […] LSC were treated ex vivo with indicated concentrations of each compound for 36 h.
(§1) Following 36 h of incubation, apoptotic cells were quantified by annexin V staining. […] In a related study to address if Δ^12-PGJ3 treatment would cause any degranulation of granulocytes, a rat basophilic cell line ([…]) was treated with 100 nM Δ^12-PGJ3 and the degranulation was followed by quantitating the release of histamine and a second marker of degranulation, hexoseaminidase.
In this experiment, 500,000 BCR-ABL+ LSCs were plated in a 24-well plate followed and were treated with 25 nM PGD2Me or 100 nM ZK118182 (both are agonists of DP) for 24 h. GFP^+ cells were analyzed by flow cytometry. These agonists were purchased from Cayman Chemicals, MI.

[6] = test system: Friend virus (FV)-induced erythroleukemia; assay: FV-induced erythroleukemia in FV-infected mice, intraperitoneal treatment; type: in vivo, mouse
Description: FV-induced erythroleukemia and production of FV leukemia stem cells (FV-LSCs): BALB/c mice were infected with FV as previously described (Subramanian A et al., J Virol. 2008; 82:382-393; Harandi O F et al., J Clin Invest. 2010; 120:4507-4519). On day 14 after infection, spleens were isolated and a single cell suspension of spleen cells was generated. The cells were filtered through a 70 μm sterile filter and flow-through cells were resuspended in RBC lysis buffer followed by centrifugation. Leukemia stem cells were isolated by FACS. Spleen cells were labeled with anti-Kit, Sca1 (BioLegend, San Diego, Calif.) and M34 antibodies. M34 is a monoclonal antibody that recognizes the envelope protein of SFFV (Chesebro B et al., Virology. 1981; 112:131-144) and was used as previously described (Subramanian A et al., J Virol. 2008; 82:382-393). As indicated M34^+Kit^+Sca1^+ cells were cultured in Methocult media (Stem Cell Technologies Vancouver BC) M3334 supplemented with 200 ng/ml Sonic Hedgehog (Shh), 15 ng/ml bone morphogenetic protein-4 (BMP4) (both from R&D Systems Minneapolis, Minn.), and 50 ng/ml stem cell factor (SCF; Peprotech). For CFU-FV assays, cells were plated in methylcellulose media containing fetal calf serum, but lacking added growth factors as previously described (Mager D L et al., Proc Natl Acad Sci USA. 1981; 78:1703-1707).
Complete blood counts of mice treated with Δ^12-PGJ3 (0.05 mg/kg) were examined. There is no difference in treated mice and untransplanted control mice in terms of white blood cell counts, red blood cell counts or platelet counts. Changes in hematological parameters in FV-infected mice upon treatment with CyPGs were examined. FV-infected Balb/c mice were treated with Δ^12-PGJ3 (0.05 mg/kg) intraperitoneally for 7 d following which the mice were sacrificed and hematological parameters were analyzed on an Advia blood analyzer. FV-infected Δ^12-PGJ3 treated mice were compared to infected vehicle controls. N=5 per group, all data are means±s.e.m. *P<0.05. 3% w/v hydroxypropyl-3-cyclodextrin was used as a vehicle in in vivo experiments. Spleen sizes of FV-infected mice that were treated with either vehicle, 9,10-dihydro-15d-PGJ2 (0.05 mg/kg), or 15d-PGJ2 (0.05 mg/kg) were examined; N=3 pre group. Hematological parameters of Balb/c uninfected, infected, and 15d-PGJ2 treated mice were examined. N=5 per group. All data were means±s.e.m. *P<0.05.
FV-LSC were targeted by 15d-PGJ2 in the spleen of FV-infected mice. FV-infected mice were treated with 15d-PGJ2 or 9,10-dihydro-15d-PGJ2 at 0.05 mg/kg for 7 d. The splenic LSC (M34^+Sca1^+Kit^+) cells were analyzed by flow cytometry on day 14 post infection. […] Uninfected and infected vehicle controls were used for comparison. N=3; *P<0.05. […] The colonies were counted 10-14 days after plating. N=3 mice per group, *p<0.05.

[7] = test system: rat basophilic cell line (RBL-23); assay: Degranulation of basophilic cells (histamine and hexoseaminidase release); conditions: Δ^12-PGJ3 100 nM
Experimental: as §1

[8] = test system: normal HSCs (MSCV-GFP^+HSC); assay: Effect on normal HSCs (MSCV-GFP+ HSC) treated ex vivo; conditions: antagonists/inhibitor 10 nM; Δ^12-PGJ3 25 nM; 36 h
[9] = test system: primary human AML cells; LSCs (CD34+CD38−CD123+); assay: Apoptosis of primary human AML cells and AML LSCs (annexin V); type: cell-based; conditions: CAY10471 10 nM pretreatment, then Δ^12-PGJ3 100 nM
Experimental: In this experiment, 110,000/well primary AML cells were cultured in above specified media for 6 and 12 hrs. Cells were collected and washed once with ice cold PBS. The cells were resuspended in 200 ul 1× Apoptosis buffer with annexin-V PE to all tubes. The cells were washed in PBS and resuspended in 600 ul PBS and transfer into flow tubes and analyzed for apoptosis (Annexin V+ cells) on FC-500. […] In this experiment, 110,000/well AML cells were cultured in earlier mentioned media for 6 and 12 hrs. Cells were collected and washed once in PBS and resuspended in 200 ul PBS and blocked with FC receptor antibody 10 mins RT. The following antibodies were added: CD38, CD123, CD34, CD117 (BD bioscience) for 1 hr on ice. Cells were washed in PBS once and resuspended in 200 ul of apoptotic buffer, and annexin V was added and incubated for 15 mins. Apoptotic cells (Annexin V+ cells) were counted by flow cytometry. […] Cells were collected and washed once in PBS and resuspended in 200 ul PBS and blocked with FC receptor antibody 10 mins RT. The following antibodies were added: CD38, CD123, CD34 (BD bioscience) for 1 hr on ice. Cells were washed in PBS once and resuspended in 200 ul of apoptotic buffer, and annexin V was added and incubated for 15 mins. Apoptotic cells (Annexin V+ cells) were counted by flow cytometry.
Referring to the results shown in FIG. 16, these experiments were performed with primary AML stem cells isolated from a patient. […] In an identical experiment, the cells were also treated with a synthetic DP agonist, ZK118182 (100 nM). Apoptosis of cells (by annexin V staining) was measured using flow cytometry.

[10] = test system: Human unfractionated bone marrow cells; assay: Colony formation of normal human bone marrow cells in methylcellulose; conditions: methylcellulose with multiple growth factors, 12 days
Experimental: Human unfractionated bone marrow cells (5×10^5 per well) were plated in methylcellulose complete media containing IL-3, GM-CSF, G-CSF, SCF and Epo supplemented with the indicated concentrations of drugs. Total colonies were counted after 12 days.

SMILES: CCCCC/C=C\C=C1\C(=O)CC[C@@H]1C/C=C\CCCC(=O)O [9,10-dihydro-15d-PGJ2]
- apoptosis of FV-LSCs [1]: fail to induce apoptosis; also recorded: no apoptosis
- hematocrit, WBC counts and reticulocyte counts ([2]; FV-induced leukemia, FIG. 3C): had no effect on any parameter tested
- LSCs (M34+Sca1+Kit+) in the spleen ([2]; flow cytometry after 1 week i.p. treatment): did not have any effect on their viability
- splenomegaly ([2]; Δ^12-PGJ3 0.025 and 0.05 mg/kg, comparators 0.05 mg/kg, i.p. 1 week): nor alleviated splenomegaly
- p53 expression at transcript level (p53 [3]; 10 or 25 nM, 12 h): ineffective
- p53 mRNA (p53 [4]; 25 nM ex vivo): ineffective
- apoptosis of Sca1+GFP+Kit+ BCR-ABL+LSC from spleen ([5]; 25-1000 nM, 36 h): had no effect; also recorded: ineffective even at high concentrations up to 1 μM
- LSCs (Sca1+Kit+M34+) in the spleen ([6]; 0.05 mg/kg i.p. 7 d, flow cytometry day 14 post infection): ineffective
- splenomegaly, comparator CyPGs ([6]; i.p. 7 days): did not have any effect on the amelioration of splenomegaly

SMILES: C[C@H](CCC(=O)O)C[C@H](C)C[C@H](C)C(=O)/C=C(\O)[C@H](C)C[C@H](C)C/C=C/[C@@H](C)[C@@H](O)[C@@H](C)[C@@H](O)C[C@@H]1CC[C@@](C)([C@H]2CC[C@@](C)([C@@H](C)O)O2)O1 [ionomycin]
- degranulation (release of histamine and hexoseaminidase) [7]: caused extensive production of histamine and hexoseaminidase

SMILES: CN(C1CCc2c(c3ccccc3n2CC(=O)O)C1)S(=O)(=O)c1ccc(F)cc1 (stereo not shown) [CAY10471, reference compound]
- inhibition of Δ^12-PGJ3-induced apoptosis by DP antagonist ([5]; antagonist 10 nM, 2 h pretreatment, then 25 nM Δ^12-PGJ3, 36 h): inhibited
- viability of MSCV-HSC control cells [8]: not affected
- block of Δ^12-PGJ3-induced apoptosis of LSCs [9]: completely blocked the apoptosis

SMILES: O=c1cc(-c2cccc3c2Sc2ccccc2S3)oc(N2CCOCC2)c1 [MTPO, 2-Morpholin-4-yl-6-thianthren-1-yl-pyran-4-one]
- block of Δ^12-PGJ3-dependent p53 expression by ATM inhibitors (p53 [3]; preincubation, then Δ^12-PGJ3): blocked the CyPG-dependent expression of p53
- block of Δ^12-PGJ3-induced p53 expression by ATM inhibitor (p53 [4]; pretreatment): blocked
- block of Δ^12-PGJ3-induced apoptosis by ATM inhibitor ([5]; pretreatment, then 25 nM Δ^12-PGJ3): blocked the effect of Δ^12-PGJ3 on apoptosis
- viability of MSCV-HSC control cells [8]: not affected

SMILES: CC(C)OC(=O)COCC=CCC1C(Cl)CC(O)C1C=CC(O)C1CCCCC1 (stereo not drawn) [ZK118182, [[4-[5R-chloro-2Z-[3R-cyclohexyl-3 S-hydroxy-1R-propenyl]-3 S-hydroxycyclopentyl]-2R-butenyl]oxy]-acetic acid, isopropyl ester]
- total colonies of human bone marrow cells [10]: had no effect
- apoptosis of BCR-ABL+ LSCs by synthetic DP agonists (GFP+ cells) ([5]; 25 nM PGD2Me or 100 nM ZK118182, 24 h): can induce apoptosis of LSCs
